Where two headings read alike, the source gives them in different places.
Legend:
[1] = in vivo
Experimental: (§1) The irritancy of the products of some of the synthesis examples (if necessary after purification) was tested using standard testing protocols.

[2] = in vivo; remark: listed apart in the source
Experimental: as §1

Daphnia magna = assay: aquatic toxicity to Daphnia magna, standard bio-assay; type: in vivo; conditions: end of the 48 hour assay procedure
From the text: The results are given below:

[3] = irritancy, standard testing protocols: skin; conditions: in vivo
Experimental: as §1

[4] = irritancy, standard testing protocols: eye; conditions: in vivo
Experimental: as §1

[5] = test system: fungal leaf rust (Puccinia recondite); assay: AE5 field trial, tebuconazole fungicide with adjuvant on winter wheat leaf rust; type: in vivo; conditions: infected leaf area
Experimental: Field trials were carried out to test the effectiveness of fungicide on winter wheat (variety Versailles) using the active Horizon EW (tebuconazole) (250 g.I^−1) in the control of fungal leaf rust (Puccinia recondite). The plots were sprayed at a spray volume 300 I.ha^−1, with the adjuvants added as tank mix additives at a concentration of 0.1% weightivolume on the spray. The normal application rate (NAR) for Horizon alone is 1 I.ha^−1 (250 g.ha^−1) and this was used as a control together with 0.75 I.ha^−1 (187.5 g.ha^−1; […]). An untreated control was also included. For these trials, adjuvant containing formulations were at ¾ NAR for the active and 0.1% weight/volume (300 g.ha^−1) adjuvant The effect of the spraying was assessed 3 weeks after treatment and is expressed as % infected leaf area (2 and 3 top leaves).

[6] = tebuconazole 187.5 g · ha^−1, adjuvant (where used) 300 g · ha^−1, 3 weeks after treatment
[7] = tebuconazole 250 g · ha^−1, adjuvant (where used) 300 g · ha^−1, 3 weeks after treatment

In the case of “1-(N,N-bis(N-1-deoxyglucitylamino)amonium)-2-hydroxy-3-dodecyloxy Propane Sulphate [SE25]”, the “Irritation assessment Eye” value [1] is reported as “moderate” and the “Irritation assessment Skin” value [2] is reported as “slight”.

In the case of CCCCCCCCCCOCC(O)CN(C)C[C@H](O)[C@@H](O)[C@H](O)[C@H](O)CO (some centres unmarked) [SE10, 1-(N-methyl-N-1-deoxyglucitylamino)2-hydroxy-3-decyloxy propane], the “Irritation assessment Eye” value [1] is reported as “moderate/severe” and the “Irritation assessment Skin” value [2] is reported as “practically none”.

In the case of CCCCCCCCCCCCCCOCC(O)CN(CC(O)C(O)C(O)C(O)CO)CC(O)C(O)C(O)C(O)CO (centres unmarked) [SE20, 1-(N-bis-sorbitylamino)2-hydroxyl-3-tetradecyloxy propane], the “EC50 for immobilising the Daphnia” value (Daphnia magna) is reported as greater than 100 mg.I^−1.

In the case of “1-(N-1-deoxyglucitylamino)2-hydroxyl-3-(branched octadecyloxy poly-10PO-10EO) propane [SE21]”, the “Irritation assessment Eye” value [1] is reported as “practically none/slight”, the “EC50 for immobilising the Daphnia” value (Daphnia magna) is reported as 31.4 mg.I^−1 and the “Irritation assessment Skin” value [2] is reported as “slight/moderate”.

For “Betaine from 1-(N-1-deoxyglucitylamino)-2-hydroxy-3-dodecyloxy Propane [SE23]”, the “Irritation assessment Skin” value [3] was “slight” and the “Irritation assessment Eye” value [4] was “moderate”.

With CC(C)(C)C(O)(CCc1ccc(Cl)cc1)Cn1cncn1 (racemic) [tebuconazole, (RS)1-p-chlorophenyl4,4-dimethyl-3-(1H-1,2,4triazole-1-ylmethyl)-pentan-3ol] the “% infected 2 leaf” value [5, 6] was 2.5%, the “% infected 3 leaf” value [5, 6] was 10% and the “% infected 2 leaf” value [5, 7] was 2.5%. The “% infected 3 leaf” value [5, 7] was 2.5%.
